Test results reported in US8063060B2, “R(−)-11-hydroxyaporphine derivatives and uses thereof” (The McLean Hospital Corporation, priority 2004, dated 2011).
Counter-ions that a name gives are not always drawn. Like-named read-outs stand apart in the source and are kept apart here.

Tests used:
[1] = following a single dose; cited from earlier work
dopamine D2 receptor = dopamine D2 receptor (Rattus norvegicus, UniProt P61169); experiment: Radioligand competition assay, D2 receptor, rat corpus striatum membranes, [3H]nemonapride; assay type: binding
Description: (§1) Affinity of N-alkyl R(−)-11-hydroxyaporphines (14, 4, 5, 15, 23, 24) and their esters (17-19) for the dopamine D1 and D2 receptors was determined by radioligand competition assays, using membrane preparations from dopamine-rich corpus striatum (caudatoputamen) tissue from rat forebrain. Adult male Sprague-Dawley rats were sacrificed by decapitation following carbon dioxide narcosis. Brains were quickly removed and dissected on ice. Tissue was homogenized in 50 mM Tris-HCl buffer (pH 7.4) containing 150 mM NaCl, washed twice and resuspended in the same buffer. For the D1 dopamine receptor assay, homogenate was incubated with 0.3 nM [^3H]SCH-23390 (Perkin Elmer; Boston, Mass.) for 30 minutes at 30° C. Non-specific binding was defined with 10 μM cis-flupenthixol. See Faedda et al., Biochem. Pharmacol. 38:473 (1989). For the D2 receptor assay, homogenate was incubated with […] [^3H]nemonapride (Perkin Elmer, Boston, Mass.) for 90 minutes at 30° C. Nonspecific binding was defined with 10 μM haloperidol. See Baldessarini et al., Mol. Pharmacol. 42:856 (1992). Experiments were carried out in triplicate.

dopamine D1 receptor = biological target: T1, dopamine D1 receptor (Rattus norvegicus, UniProt P18901); experiment: Radioligand competition assay, D1 receptor, rat corpus striatum membranes, [3H]SCH-23390; assay type: binding
T1 construct: membrane preparations from dopamine-rich corpus striatum (caudatoputamen) tissue from rat forebrain; from tissue; host or cells: corpus striatum (caudatoputamen) of adult male Sprague-Dawley rats
Description: as §1

[2] = system: adult male Sprague-Dawley rats; experiment: Stimulation of motor activity (photobeam activity monitoring), in vivo potency and oral bioavailability; set-up: species or system rat; details: for Induced motor activation, Response (total of electronically monitored locomotor responses, scored over time): relative to 4 μmol/kg i.p. R(−)-apomorphine = 1
Description: In vivo potency and oral bioavailability of the aporphine derivatives were determined by measuring stimulation of motor activity in adult male Sprague-Dawley rats using a photobeam activity monitoring system (San Diego Instruments; San Diego, Calif.). See Zhang et al., Neuropsychopharmacology 25:624 (2001). The number of animal subjects in each experimental group ranged from 4 to 8. Oral delivery of test agents was achieved using a permanently surgically pre-implanted polyethylene gastric tube to avoid stress associated with conventional oral intubation. For this surgery, rates were anesthetized with 60 mg/kg sodium pentobarbital intraperitoneally. PE50 tubing was inserted and sutured to the stomach, and led subcutaneously to a point of access on the back of the neck, where it was sutured in place. Animals were allowed two weeks to recover prior to behavior testing.

human D3 receptor = biological target: T2, human D3 receptor (Homo sapiens, UniProt P35462); experiment: Affinity at human D3 receptor in transfected cell membranes, tritium-labeled 7-OH-DPAT; assay type: binding
T2 construct: expressed in transfected cells
Description: (§2) Affinity data were obtained in cells transfected with human D1, D2, or D3 receptor cDNA. Cells were grown and harvested using standard procedures.

human D1 receptor = biological target: T3, human D1 receptor (Homo sapiens, UniProt P21728); experiment: Affinity at human D1 receptor in transfected cell membranes, tritium-labeled SCH-23390; assay type: binding
T3 construct: expressed in transfected cells
Description: as §2

human D2 receptor = biological target: T4, human D2 receptor (Homo sapiens, UniProt P14416); experiment: Affinity at human D2 receptor in transfected cell membranes, tritium-labeled nemonapride; assay type: binding
T4 construct: expressed in transfected cells
Description: as §2

[3] = rat striatal membranes, [3H]nemonapride, 90 minutes at 30° C, read-out: Affinity at rat dopamine receptors, D2
[4] = rat striatal membranes, 0.3 nM [3H]SCH-23390, 30 minutes at 30° C, read-out: Affinity at rat dopamine receptors, D1
[5] = transfected cell membranes, read-out: Affinity at human receptors, D3
[6] = transfected cell membranes, read-out: Affinity at human receptors, D2
[7] = transfected cell membranes, read-out: Affinity at human receptors, D1

dopamine D2 receptor, sequence (P61169 1-415 isoform P61169-2): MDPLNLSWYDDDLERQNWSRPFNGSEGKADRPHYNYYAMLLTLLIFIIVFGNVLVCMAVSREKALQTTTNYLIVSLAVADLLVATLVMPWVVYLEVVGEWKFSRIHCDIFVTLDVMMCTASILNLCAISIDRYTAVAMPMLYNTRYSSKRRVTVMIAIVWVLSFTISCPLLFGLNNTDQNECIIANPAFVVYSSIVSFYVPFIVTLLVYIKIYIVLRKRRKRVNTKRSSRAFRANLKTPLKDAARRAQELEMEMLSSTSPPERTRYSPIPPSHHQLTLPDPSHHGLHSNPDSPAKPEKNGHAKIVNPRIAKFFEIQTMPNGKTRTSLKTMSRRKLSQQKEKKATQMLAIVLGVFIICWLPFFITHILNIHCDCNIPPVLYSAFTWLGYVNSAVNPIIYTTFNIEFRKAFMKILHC
T4 sequence (P14416 whole entry): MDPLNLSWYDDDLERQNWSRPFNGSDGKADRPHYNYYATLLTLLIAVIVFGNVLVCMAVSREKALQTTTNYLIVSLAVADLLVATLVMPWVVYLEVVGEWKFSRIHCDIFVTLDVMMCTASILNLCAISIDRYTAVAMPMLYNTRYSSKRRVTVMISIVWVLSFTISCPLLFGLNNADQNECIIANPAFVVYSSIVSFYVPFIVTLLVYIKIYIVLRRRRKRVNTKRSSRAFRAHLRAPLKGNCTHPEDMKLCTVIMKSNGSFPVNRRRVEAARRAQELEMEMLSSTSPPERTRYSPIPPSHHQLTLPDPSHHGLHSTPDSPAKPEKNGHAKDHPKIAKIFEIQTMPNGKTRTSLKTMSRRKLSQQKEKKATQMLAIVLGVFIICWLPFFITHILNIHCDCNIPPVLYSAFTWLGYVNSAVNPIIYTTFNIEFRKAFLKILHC
T3 sequence (P21728 whole entry): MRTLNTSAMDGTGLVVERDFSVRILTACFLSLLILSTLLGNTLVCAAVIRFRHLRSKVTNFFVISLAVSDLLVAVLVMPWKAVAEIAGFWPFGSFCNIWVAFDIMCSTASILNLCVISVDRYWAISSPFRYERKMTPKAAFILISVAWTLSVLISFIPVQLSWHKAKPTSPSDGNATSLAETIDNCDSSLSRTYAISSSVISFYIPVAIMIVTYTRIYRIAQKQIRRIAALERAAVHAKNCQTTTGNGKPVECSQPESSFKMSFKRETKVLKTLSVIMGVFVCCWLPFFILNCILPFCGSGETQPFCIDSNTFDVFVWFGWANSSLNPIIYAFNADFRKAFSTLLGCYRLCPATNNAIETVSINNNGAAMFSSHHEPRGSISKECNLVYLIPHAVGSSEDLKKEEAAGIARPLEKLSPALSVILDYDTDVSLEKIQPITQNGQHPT
T2 sequence (P35462 whole entry): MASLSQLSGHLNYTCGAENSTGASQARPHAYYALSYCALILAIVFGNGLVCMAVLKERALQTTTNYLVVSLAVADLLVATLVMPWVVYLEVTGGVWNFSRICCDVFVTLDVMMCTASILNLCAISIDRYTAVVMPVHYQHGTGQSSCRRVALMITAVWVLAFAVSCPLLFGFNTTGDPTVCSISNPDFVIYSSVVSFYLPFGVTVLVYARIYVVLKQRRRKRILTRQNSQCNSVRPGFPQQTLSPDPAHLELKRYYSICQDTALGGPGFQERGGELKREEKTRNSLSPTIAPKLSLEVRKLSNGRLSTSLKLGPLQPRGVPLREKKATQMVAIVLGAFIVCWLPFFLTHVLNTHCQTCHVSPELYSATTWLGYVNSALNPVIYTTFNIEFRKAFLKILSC
T1 sequence (P18901 whole entry): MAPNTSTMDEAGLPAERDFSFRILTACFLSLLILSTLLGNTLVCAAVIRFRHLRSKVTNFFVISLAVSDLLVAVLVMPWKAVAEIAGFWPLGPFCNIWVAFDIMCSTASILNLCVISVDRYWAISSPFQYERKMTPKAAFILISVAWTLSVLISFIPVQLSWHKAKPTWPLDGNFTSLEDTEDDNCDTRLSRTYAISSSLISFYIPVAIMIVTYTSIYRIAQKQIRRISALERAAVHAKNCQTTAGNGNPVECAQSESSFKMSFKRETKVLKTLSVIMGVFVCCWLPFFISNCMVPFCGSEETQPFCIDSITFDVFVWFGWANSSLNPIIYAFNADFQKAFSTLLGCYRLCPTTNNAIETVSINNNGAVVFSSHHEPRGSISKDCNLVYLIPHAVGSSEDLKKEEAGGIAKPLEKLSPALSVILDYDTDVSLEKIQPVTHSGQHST

CN1CCc2cccc3c2[C@H]1Cc1ccc(O)c(O)c1-3 [Compound 1, R(−)-apomorphine]
effects last for [1]: 40 to 60 min
onset of action [1]: 5 to 15 min

C=CCN1CCc2cccc3c2[C@H]1Cc1cccc(O)c1-3 (as salt: hydrochloride) [Compound 5, R(−)-N-allyl-11-hydroxynoraporphine]
melting point: 186 to 190 °C

CN1CCc2cccc3c2[C@H]1Cc1cccc(O)c1-3 [Compound 3, R(−)-11-OH-aporphine, reference compound]
Ki (dopamine D2 receptor; [3]): 108 ± 10.8 nM
Ki (dopamine D1 receptor; [4]): 26.5 ± 1.03 nM

CCN1CCc2cccc3c2[C@H]1Cc1cccc(O)c1-3 (as salt: hydrochloride) [Compound 14, R(−)—N-ethyl-11-hydroxynoraporphine]
melting point: 250 °C

CCCN1CCc2cccc3c2[C@H]1Cc1ccc(O)c(O)c1-3 [Compound 2, R(−)-N-propylnorapomorphine, reference compound]
Induced motor activation, Response (total of electronically monitored locomotor responses, scored over time) ([2]; 4 μmol/kg, gastric): 0
Induced motor activation, Duration ([2]; 4 μmol/kg, peritoneal): 8 h
Induced motor activation, Response (total of electronically monitored locomotor responses, scored over time) ([2]; 4 μmol/kg, peritoneal): 12
Induced motor activation, Duration ([2]; 20 μmol/kg, gastric): 14 h
Induced motor activation, Response (total of electronically monitored locomotor responses, scored over time) ([2]; 20 μmol/kg, gastric): 68
Ki (human D3 receptor; [5]): 0.51 ± 0.07 nM

CCCN1CCc2cc(F)cc3c2[C@H]1Cc1cccc(O)c1-3 [Compound 23, R(−)-2-fluoro-N-propyl-11-hydroxynoraporphine]
Ki (dopamine D2 receptor; [3]): 203 ± 37 nM
Ki (dopamine D1 receptor): 12.6 ± 0.6 nM

CCCN1CCc2cccc3c2[C@H]1Cc1cccc(O)c1-3 [Compound 4, R(−)—N-propyl-11-hydroxynoraporphine]
Induced motor activation, Response (total of electronically monitored locomotor responses, scored over time) ([2]; 4 μmol/kg, gastric): 0
Induced motor activation, Duration ([2]; 4 μmol/kg, peritoneal): 8 h
Induced motor activation, Response (total of electronically monitored locomotor responses, scored over time) ([2]; 4 μmol/kg, peritoneal): 24
Induced motor activation, Duration ([2]; 20 μmol/kg, gastric): 18 h
Induced motor activation, Response (total of electronically monitored locomotor responses, scored over time) ([2]; 20 μmol/kg, gastric): 76
Ki (human D1 receptor): 1280 ± 209 nM
Ki (human D3 receptor): 4.89 ± 1.06 nM

Oc1cccc2c1-c1cccc3c1[C@@H](C2)N(CC1CC1)CC3 [Compound 15, R(−)-N-cyclopropylmethyl-11-hydroxynoraporphine]
Ki (dopamine D2 receptor): 96.3 ± 15.8 nM
Ki (human D2 receptor; [6]): 436 ± 39 nM
Ki (dopamine D1 receptor; [4]): 272 ± 18 nM
Ki (human D3 receptor): 30.1 ± 3.5 nM

CCCN1CCc2cc(F)cc3c2[C@H]1Cc1ccc(O)c(O)c1-3 [Compound 22, R(−)-2-fluoro-N-n-propylnorapomorphine, reference compound]
Ki (dopamine D2 receptor; [3]): 17.2 ± 1.2 nM
Ki (human D2 receptor; [6]): 46 ± 2.6 nM
Ki (human D1 receptor; [7]): 414 ± 30 nM
Ki (dopamine D1 receptor; [4]): 618 ± 133 nM
Ki (human D3 receptor; [5]): 2.49 ± 0.18 nM

CC/C=C\C/C=C\C/C=C\C/C=C\C/C=C\C/C=C\CCC(=O)Oc1cccc2c1-c1cccc3c1[C@@H](C2)N(CCC)CC3 [Compound 17, R(−)-11-O-docosahexaenoyl-N-propyl-noraporphine]
Induced motor activation, Response (total of electronically monitored locomotor responses, scored over time) ([2]; 4 μmol/kg, cutaneous): 0
Induced motor activation, Response (total of electronically monitored locomotor responses, scored over time) ([2]; 4 μmol/kg, gastric): 0
Induced motor activation, Duration ([2]; 20 μmol/kg, cutaneous): 6 h
Induced motor activation, Response (total of electronically monitored locomotor responses, scored over time) ([2]; 20 μmol/kg, cutaneous): 5
Induced motor activation, Duration ([2]; 20 μmol/kg, gastric): 12 h
Induced motor activation, Response (total of electronically monitored locomotor responses, scored over time) ([2]; 20 μmol/kg, gastric): 75

C=CCN1CCc2cccc3c2[C@H]1Cc1cccc(O)c1-3 [Compound 5, R(−)-N-allyl-11-hydroxynoraporphine]
Ki (dopamine D2 receptor): 41.1 ± 11 nM
Ki (human D2 receptor): 113 ± 17 nM
Ki (human D1 receptor): 944 ± 149 nM
Ki (dopamine D1 receptor): 397 ± 51 nM

CCN1CCc2cccc3c2[C@H]1Cc1cccc(O)c1-3 [Compound 14, R(−)—N-ethyl-11-hydroxynoraporphine]
Ki (dopamine D2 receptor): 88 ± 15.5 nM
Ki (human D2 receptor; [6]): 283 ± 53 nM
Induced motor activation, Response (total of electronically monitored locomotor responses, scored over time) ([2]; 4 μmol/kg, gastric): 0
Induced motor activation, Duration ([2]; 4 μmol/kg, peritoneal): 4 h
Induced motor activation, Response (total of electronically monitored locomotor responses, scored over time) ([2]; 4 μmol/kg, peritoneal): 12
Induced motor activation, Response (total of electronically monitored locomotor responses, scored over time) ([2]; 20 μmol/kg, gastric): 0
Ki (human D1 receptor; [7]): 362 ± 38 nM
Ki (dopamine D1 receptor; [4]): 177 ± 13 nM
Ki (human D3 receptor): 36.7 ± 4 nM

CCCN1CCc2cccc3c2[C@H]1Cc1cccc(OC(C)=O)c1-3 [Compound 19, R(−)-11-O-acetyl-N-propyl-noraporphine]
Ki (dopamine D2 receptor; [3]): 72.3 ± 6.8 nM
Induced motor activation, Response (total of electronically monitored locomotor responses, scored over time) ([2]; 4 μmol/kg, gastric): 0
Induced motor activation, Duration ([2]; 4 μmol/kg, peritoneal): 8 h
Induced motor activation, Response (total of electronically monitored locomotor responses, scored over time) ([2]; 4 μmol/kg, peritoneal): 12
Induced motor activation, Duration ([2]; 20 μmol/kg, gastric): 16 h
Induced motor activation, Response (total of electronically monitored locomotor responses, scored over time) ([2]; 20 μmol/kg, gastric): 168

CCCCC(=O)Oc1cccc2c1-c1cccc3c1[C@@H](C2)N(CCC)CC3 [Compound 18, R(−)-11-O-valeryl-N-propyl-noraporphine]
Ki (dopamine D2 receptor; read-out: Affinity at rat dopamine receptors, D2): 340 ± 65 nM
Induced motor activation, Response (total of electronically monitored locomotor responses, scored over time) ([2]; 4 μmol/kg, gastric): 0
Induced motor activation, Duration ([2]; 4 μmol/kg, peritoneal): 12 h
Induced motor activation, Response (total of electronically monitored locomotor responses, scored over time) ([2]; 4 μmol/kg, peritoneal): 53
Induced motor activation, Duration ([2]; 20 μmol/kg, gastric): 14 h
Induced motor activation, Response (total of electronically monitored locomotor responses, scored over time) ([2]; 20 μmol/kg, gastric): 99

CN1CCc2cc(O)cc3c2[C@H]1Cc1cccc(O)c1-3 [Compound 24, R(−)-2,11-dihydroxyaporphine]
Ki (dopamine D2 receptor): 86 ± 14.2 nM
Ki (dopamine D1 receptor; [4]): 122 ± 8 nM
